Reference: patent publication US20250090576A1, “METHODS FOR TREATING NONTUBERCULOUS MYCOBACTERIA DISEASES” (Microbion Corporation, priority 2022, published 2025)
In brackets after ≈: the same amount, converted by molar mass. Like-named read-outs stand apart in the source and are kept apart here.

What was measured:
[1] = test system: M. abscessus strain 19977; assay: MIC broth dilution, growth by turbidity/OD 595 nm; type: cell-based; settings: for Sensitivity phenotype (R/I/S): 19977; for MIC: Mycobacteroides abscessus
Experimental: (§1) Mycobacteria strains were used to determine MICs of BisEDT and amikacin. Strains included cystic fibrosis patient isolates from National Jewish Hospital. A range of high dose to low dose of antibiotics was used to determine bacteria susceptibility. M. avium strain 104, M. avium strain 3388, and CF patient strain DNA00133 were grown to log phase (7 days) while M. abscessus strain 19977, CF patient strain DNA00703, and CF patient strain DNA01715 achieved log phase (4 days) on 7H10 middlebrook media plates supplemented with 10% OADC (Oleic acid, Albumin, Dextrose, Catalase). […] For BisEDT, two types of compound physical states were tested. First, BisEDT was solubilized in DMSO (furthermore labeled soluble BisEDT). Second, BisEDT was made in suspension to mimic in vivo studies (furthermore labeled insoluble BisEDT). […] Control tubes containing no antibiotics were also included for each antibiotic tested. Inoculums of […] bacteria for each strain was measured with optical density (O.D.) at 595 nm. 10 μl of these inoculums were added to each antibiotic tube and incubated in a shaking incubator at 37° C. and 200 rpm. Slow growing stains were measured for growth after 10 days incubation while fast growing strains were incubated for 5 days. After incubation, 100 μl from each tube was pulled and placed in a 96-well plate for O.D. reading. Turbidity determined sensitive, intermediate, or resistant bacteria.

[2] = test system: M. avium strain 104 (MAH 104); assay: MIC broth dilution, growth by turbidity/OD 595 nm; type: cell-based; settings: for Sensitivity phenotype (R/I/S): MAH 104; for MIC: Mycobacterium avium
Experimental: as §1

[3] = test system: M. avium strain 3388 (MAH 3388); assay: MIC broth dilution, growth by turbidity/OD 595 nm; type: cell-based; settings: for Sensitivity phenotype (R/I/S): MAH 3388; for MIC: Mycobacterium avium
Experimental: as §1

[4] = test system: CF patient strain DNA00703; assay: MIC broth dilution, growth by turbidity/OD 595 nm; type: cell-based, M. abscessus; settings: for MIC: Mycobacteroides abscessus
Experimental: as §1

[5] = test system: CF patient strain DNA01715; assay: MIC broth dilution, growth by turbidity/OD 595 nm; type: cell-based, M. abscessus; settings: for MIC: Mycobacteroides abscessus
Experimental: as §1

M. abscessus MABS2 = assay: MIC (Table 8); type: cell-based; settings: Mycobacteroides abscessus
M. abscessus MABS4 = assay: MIC (Table 8); type: cell-based; settings: Mycobacteroides abscessus
M. abscessus MABS9 = assay: MIC (Table 8); type: cell-based; settings: Mycobacteroides abscessus
M. abscessus MABS11 = assay: MIC (Table 8); type: cell-based; settings: Mycobacteroides abscessus

With `NCC[C@H](O)C(=O)N[C@@H]1C[C@H](N)[C@@H](O[C@H]2O[C@H](CN)[C@@H](O)[C@H](O)[C@H]2O)[C@H](O)[C@H]1O[C@H]1O[C@H](CO)[C@@H](O)[C@H](N)[C@H]1O` [amikacin] the “Sensitivity phenotype (R/I/S)” value ([1]; 1 μg/mL) was “R”, the “Sensitivity phenotype (R/I/S)” value ([1]; 2 μg/mL) was “R” and the “Sensitivity phenotype (R/I/S)” value ([1]; 4 μg/mL) was “R”. For the same compound, the “Sensitivity phenotype (R/I/S)” value ([1]; 8 μg/mL) was “R”, the “Sensitivity phenotype (R/I/S)” value ([1]; 16 μg/mL) was “R” and the “Sensitivity phenotype (R/I/S)” value ([1]; 32 μg/mL) was “S”. For the same compound, the “Sensitivity phenotype (R/I/S)” value ([1]; 64 μg/mL) was “S”, the “Sensitivity phenotype (R/I/S)” value ([1]; 128 μg/mL) was “S” and the MIC ([1]; M. abscessus strain 19977 (Table 4), read-out: MIC determined for the strain, used for treatment of infected macrophages) was 32 µg/mL (≈ 54.6 µM). The MIC ([1]; M. abscessus strain 19977, read-out: MIC) was 32 µg/mL (≈ 54.6 µM), the “Sensitivity phenotype (R/I/S)” value ([2]; 1 μg/mL) was “R” and the “Sensitivity phenotype (R/I/S)” value ([2]; 2 μg/mL) was “R”. The “Sensitivity phenotype (R/I/S)” value ([2]; 4 μg/mL) was “R”, the “Sensitivity phenotype (R/I/S)” value ([2]; 8 μg/mL) was “S” and the “Sensitivity phenotype (R/I/S)” value ([2]; 16 μg/mL) was “S”. The “Sensitivity phenotype (R/I/S)” value ([2]; 32 μg/mL) was “S”, the “Sensitivity phenotype (R/I/S)” value ([2]; 64 μg/mL) was “S” and the “Sensitivity phenotype (R/I/S)” value ([2]; 128 μg/mL) was “S”. The MIC ([2]; M. avium strain 104 (Table 3), read-out: MIC determined for the strain, used for treatment of infected macrophages) was 8 µg/mL (≈ 13.7 µM), the MIC ([2]; M. avium strain 104, read-out: MIC) was 8 µg/mL (≈ 13.7 µM) and the “Sensitivity phenotype (R/I/S)” value ([3]; 1 μg/mL) was “R”. For the same compound, the “Sensitivity phenotype (R/I/S)” value ([3]; 2 μg/mL) was “R”, the “Sensitivity phenotype (R/I/S)” value ([3]; 4 μg/mL) was “I” and the “Sensitivity phenotype (R/I/S)” value ([3]; 8 μg/mL) was “S”. The “Sensitivity phenotype (R/I/S)” value ([3]; 16 μg/mL) was “S”, the “Sensitivity phenotype (R/I/S)” value ([3]; 32 μg/mL) was “S” and the “Sensitivity phenotype (R/I/S)” value ([3]; 64 μg/mL) was “S”. For the same compound, the “Sensitivity phenotype (R/I/S)” value ([3]; 128 μg/mL) was “S”, the MIC ([3]; M. avium strain 3388 (Table 3), read-out: MIC determined for the strain, used for treatment of infected macrophages) was 8 µg/mL (≈ 13.7 µM) and the MIC ([3]; M. avium strain 3388, read-out: MIC) was 8 µg/mL (≈ 13.7 µM). The “Sensitivity phenotype (R/I/S)” value ([4]; 1 μg/mL) was “R”, the “Sensitivity phenotype (R/I/S)” value ([4]; 2 μg/mL) was “R” and the “Sensitivity phenotype (R/I/S)” value ([4]; 4 μg/mL) was “R”. For the same compound, the “Sensitivity phenotype (R/I/S)” value ([4]; 8 μg/mL) was “R”, the “Sensitivity phenotype (R/I/S)” value ([4]; 16 μg/mL) was “I” and the “Sensitivity phenotype (R/I/S)” value ([4]; 32 μg/mL) was “I”. The “Sensitivity phenotype (R/I/S)” value ([4]; 64 μg/mL) was “S”, the “Sensitivity phenotype (R/I/S)” value ([4]; 128 μg/mL) was “S” and the MIC ([4]; M. abscessus strain 00703 (Table 4), read-out: MIC determined for the strain, used for treatment of infected macrophages) was 64 µg/mL (≈ 109 µM). For the same compound, the MIC ([4]; M. abscessus strain from patient 00703, read-out: MIC) was 64 µg/mL (≈ 109 µM), the “Sensitivity phenotype (R/I/S)” value ([5]; 1 μg/mL) was “R” and the “Sensitivity phenotype (R/I/S)” value ([5]; 2 μg/mL) was “R”. For the same compound, the “Sensitivity phenotype (R/I/S)” value ([5]; 4 μg/mL) was “R”, the “Sensitivity phenotype (R/I/S)” value ([5]; 8 μg/mL) was “I” and the “Sensitivity phenotype (R/I/S)” value ([5]; 16 μg/mL) was “S”. For the same compound, the “Sensitivity phenotype (R/I/S)” value ([5]; 32 μg/mL) was “S”, the “Sensitivity phenotype (R/I/S)” value ([5]; 64 μg/mL) was “S” and the “Sensitivity phenotype (R/I/S)” value ([5]; 128 μg/mL) was “S”. The MIC ([5]; M. abscessus strain 01715 (Table 4), read-out: MIC determined for the strain, used for treatment of infected macrophages) was 16 µg/mL (≈ 27.3 µM), the MIC ([5]; M. abscessus strain from patient 01715, read-out: MIC) was 16 µg/mL (≈ 27.3 µM) and the MIC (M. abscessus MABS2) was 32 µg/mL (≈ 54.6 µM). For the same compound, the MIC (M. abscessus MABS4) was 4 µg/mL (≈ 6.83 µM), the MIC (M. abscessus MABS9) was 8 µg/mL (≈ 13.7 µM) and the MIC (M. abscessus MABS11) was 1 µg/mL (≈ 1.71 µM).
